Source: patent US20250275539A1, “APYRASE INHIBITORS” (Texas Crop Science, Inc., priority 2024, published 2025)
Where two headings read alike, the source gives them in different places.

What was measured:
apyrase = assay: Apyrase inhibition assay (screen for apyrase inhibitors, phosphate release read at 630 nm); format: biochemical; settings: inhibitor conc at 1 mM (10 μl added), 3 mM ATP, pH 6.5, room temperature 1 hr
[1] = tested on: Brown Rust (Puccinia recondita) on wheat; assay: Greenhouse crop test: control of Brown Rust on wheat in combination with commercial fungicides; format: in vivo; settings: wheat JB Diego, inoculated 24 hours after treatment, evaluated at fourteen days
Description: In this method, exemplary compounds were evaluated for their ability to control Brown Rust (Puccinia recondita) on wheat in a controlled greenhouse environment in combination with one of four fungicides, Amistar, Imtrex, Proline or Balaya. In these studies, wheat plants (JB Diego) were used. Seeds were sown in 9 cm diameter pots to a depth of 1 to 2 cm using Petersfield potting compost (75% medium grade peat, 12% screened sterilized loam, 3% medium grade vermiculite, 10% grit (5 mm screened, lime free), 1.5 kg PG mix per m3, lime to pH5.5-6.0 and wetting agent (Vitax Ultrawet 200 ml per m3) and germinated/grown at 23 C under a 16 h day/8 h night light regime. Plants were treated two to three weeks after sowing when they were at the BBCH 11 growth stage ([…]). Wheat plants were inoculated with Puccinia triticina (Brown rust) 24 hours after treatment. A track sprayer was used to treat the plants with the mixture of commercial fungicide and test compound using a water volume of 200 L/ha. Four replicates were used for each combination of fungicide, pathogen and test compound. Each plant was evaluated at fourteen days (once the disease symptoms were fully expressed) for % control of the disease. Appropriate controls were used for all experiments, including an ‘inoculation check’ wherein plants were inoculated with their specific pathogen to assess disease levels. Also, each commercial fungicide was tested on its own as a part of each treatment, this being benchmark against which the experimental compounds were evaluated. […] That is, the present compounds, although not fungicidal by themselves, enhance the activity of fungicides, thus the enhancer compounds work synergistically in combination with fungicides to control disease. • Amistar (0.04 L/ha) • Imtrex (0.45 L/ha) • Proline (0.15 L/ha) • Balaya (0.25 L/ha)

[2] = tested on: Amaranthus retroflexus (pigweed); assay: Enhancement of herbicide activity: pre-emergence Amaranthus kill with metribuzin; format: in vivo; settings: for pest or weed control at 100 g/ha: Amaranthus retroflexus
Description: Specifically, Amaranthus retroflexus (pigweed) was treated pre-emergence with metribuzin alone or in combination with an enhancer compound disclosed herein. Fifteen seeds of Amaranthus retroflexus were sown in soil in each pot and then sprayed with a mixture of metribuzin at the appropriate rate shown in Table 5 and the compound of this invention at 100 g/ha using a track sprayer at a water volume of 200 L/hectare. Small amounts of acetone were used to aid solubility. The pots were watered immediately after sowing and treatment and then allowed to stand in a glasshouse. Assessment of kill was made seven and fourteen days after treatment. The test included four replicates for each treatment and the control.

Microdochium nivale = assay: In vitro assessment of combination activity with fungicides, pathogen growing on agar; format: cell-based; settings: in combination with azoxystrobin at a rate just below that giving control; visual % control
Description: (§1) Selected compounds are assessed in combination with fungicides against a range of commercially important plant pathogenic fungi.
(§2) The test is conducted as follows. A fungicide is applied to a fungal plant pathogen at a rate slightly below that at which it gave any control, in combination with a suitable dose of the test compound. The test compounds are recorded as active if control of the pathogen was observed.
(§3) In more detail, the test is conducted as follows. For each combination of fungicide, pathogen and test compound, the following wells are used. Well 1 contains a fungal pathogen growing on agar, and a fungicide at a rate just below that at which it gave any control of the pathogen. Well 2 is the same as Well 1, except that the test compound is also added at Rate 1. Well 3 is the same as Well 2, except that the test compound is added at Rate 2, where Rate 2 is higher than Rate 1. Finally, as a benchmark, Well 4 is the same as Well 1, except that it contained the fungicide at a higher rate, at which it gave partial control of the pathogen. Each of the Wells 1 to 4 are run in duplicate, giving a total of 8 wells for each combination of fungicide, pathogen and test compound. For each well, after a suitable period of incubation, a visual assessment of the % control of the pathogen by the fungicide is made.
(§4) The following fungicides are used in this assay: azoxystrobin, fluxapyroxad, and desthio prothioconazole. The following fungal pathogens are used in this assay: First, a strain of Zymoseptoria tritici with a reduced susceptibility to strobilurin fungicides; second a strain of Zymoseptoria tritici with a reduced susceptibility to SDHI fungicides (i.e., those that inhibit succinate dehydrogenase); and third, Microdochium nivale. […] In contrast, compounds of the present disclosure are effective in the combination assay, enhancing fungicidal activity of one or more fungicides against at least one strain.

[3] = tested on: strain of Zymoseptoria tritici with a reduced susceptibility to SDHI fungicides; assay: as above; format: cell-based; settings: in combination with azoxystrobin, fluxapyroxad or desthio prothioconazole
Description: as §1, §2, §3, §4

[4] = tested on: strain of Zymoseptoria tritici with a reduced susceptibility to strobilurin fungicides; assay: as above; format: cell-based; settings: in combination with azoxystrobin, fluxapyroxad or desthio prothioconazole
Description: as §1, §2, §3, §4

SMILES: Cc1cccc(NS(=O)(=O)c2ccc(C(C)C)cc2)c1 [Compound A-59, 4-isopropyl-N-(m-tolyl)benzenesulfonamide]
- Inhibition (apyrase): A (A is inhibition above 30%)
- Amistar (% control of the disease, compound + fungicide) ([1]; with Amistar 0.04 L/ha): 95.0%
- Balaya (% control of the disease, compound + fungicide) ([1]; with Balaya 0.25 L/ha): 50.0%
- Imtrex (% control of the disease, compound + fungicide) ([1]; with Imtrex 0.45 L/ha): 30.9%
- Proline (% control of the disease, compound + fungicide) ([1]; with Proline 0.15 L/ha): 15.6%
- pest or weed control at 100 g/ha ([2]; 168 h, read-out: Pre-Emergence Amaranthus Kill Percentage, Assessed 7 DAT, Metribuzin rate 50 g/ha): 14.3%
- pest or weed control at 100 g/ha ([2]; 168 h, read-out: Pre-Emergence Amaranthus Kill Percentage, Assessed 7 DAT, Metribuzin rate 100 g/ha): 64.6%
- pest or weed control at 100 g/ha ([2]; 168 h, read-out: Pre-Emergence Amaranthus Kill Percentage, Assessed 7 DAT, Metribuzin rate 200 g/ha): 95%
- pest or weed control at 100 g/ha ([2]; 336 h, read-out: Pre-Emergence Amaranthus Kill Percentage, Assessed 14 DAT, Metribuzin rate 50 g/ha): 25.9%
- pest or weed control at 100 g/ha ([2]; 336 h, read-out: Pre-Emergence Amaranthus Kill Percentage, Assessed 14 DAT, Metribuzin rate 100 g/ha): 67.3%
- pest or weed control at 100 g/ha ([2]; 336 h, read-out: Pre-Emergence Amaranthus Kill Percentage, Assessed 14 DAT, Metribuzin rate 200 g/ha): 100%
- enhancement of metribuzin herbicidal activity ([2]; compound at 100 g/ha with metribuzin, at seven and fourteen days): significant enhancement

SMILES: O=C(Nc1cccc([N+](=O)[O-])c1)c1cccc(S(=O)(=O)Nc2ccc(Br)cc2)c1 [Roux Compound 13]
- enhancing the activity of azoxystrobin against Microdochium nivale (Microdochium nivale): exhibited activity
- enhancement of fungicide activity against Zymoseptoria tritici strain (reduced susceptibility to SDHI fungicides) [3]: failing to enhance activity of any fungicide
- enhancement of fungicide activity against Zymoseptoria tritici strain (reduced susceptibility to strobilurin fungicides) [4]: failing to enhance activity of any fungicide
